# Test results from patent US20130129713A1, “METHOD OF ANTIGEN LOADING FOR IMMUNOTHERAPY” (IEO - ISTITUTO EUROPEO DI ONCOLOGIA S.R.L., priority 2010, published 2013).
# Assays:
# [1] = tested on: Connexin (Cx) 43 expression in B16 cells; experiment: Cx43 expression in B16 cells after infection or PAMP/IFN-g treatment (immunofluorescence, Western blot); format: cell-based, murine
# Method: Single bacterial colonies were grown overnight and restarted the next day to reach an A600 nm=0.6 corresponding to 0.6×10^9 CFU/mL. Murine and human melanoma cells were incubated with bacteria for 2 h, at a ratio of 1:50 (cell/bacteria), in the appropriate medium without antibiotics. Cells were washed with PBS and incubated in medium supplemented with 50 μg/mL gentamicin for 12 or 24 h in order to kill extracellular bacteria, with or without IFN-g(100 U/ml).
# B16 cells and DC1 DCs were plated in 6-well plates (2×10^5 cells/well) and grown for 18 h. Cells were incubated with PAMPs in complete medium with or without IFN-g(100 U/ml) for 24 hours. The PAMPs used were LPS (1 μg/ml, Sigma), flagellin (0.1 μg/ml, Alexis) and LTA (10 μg/ml, Sigma).
# 24 hour after infection or treatment with PAMPs, melanoma cells were scraped in ELB buffer (250 mM NaCl, 0.5% Nonidet P-40, 50 mM HEPES [pH 7.0], 5 mM EDTA) containing 1 mM dithiothreitol, 0.5 mM phenylmethylsulfonyl fluoride, and protease inhibitors. Cell lysates were run on SDS page and transferred on Immobilon PVDF membranes. Membranes were probed with a polyclonal rabbit-anti-Cx43 antibody (Sigma) or with a monoclonal mouse-anti-Cx43 antibody (Zymed) or with mouse-anti-vinculin antibody (Sigma) overnight at 4° C. and incubated with anti-mouse horseradish peroxidase-conjugated IgG (Calbiochem) or with anti-rabbit horseradish peroxidase-conjugated IgG (BioRad) antibodies for 1 h. Visualization was carried out with ECL (GE Healthcare). Bands were quantified by densitometry using NIH Image-based software Scion Image (Scion Corporation).
# B16 cells were plated onto coverslips (5×10^4 cells/coverslip) and grown for 18 h. Cells were infected with Salmonella. After 24 hours the cells were fixed in 4% (w/v) paraformaldehyde in PBS for 15 min. Blocking and permeabilization were carried out incubating the cells in PBS, 3% (w/v) bovine serum albumin (BSA) and 0.1% (w/v) Triton X-100 for 20 min. The cells were then stained with polyclonal rabbit-anti-Cx43 primary antibody (Sigma, 1:2000) and with an anti-rabbit-Cy3-conjugated secondary antibody (Jackson ImmunoResearch laboratories, 1:400). Cell nuclei were stained with 4′,6-diamidino-2-phenylindole. Confocal microscopy was carried out using a Leica TCS-SP2 (Leica Microsystem).
# B16-OVA cells / DCs = experiment: In vitro cross-presentation assay (K^bOVA on CD11c+ DCs); format: cell-based, murine
# Method: B16 and B16-OVA cells alone or together with DCs were treated or not with Salmonella and 24 hours later were stained with 5 μM of Carboxyfluorescein Succinimidyl ester (CF SE) for 20 minutes at 37° C. in the dark and then washed with cold PBS. Where stated, B16 and B16-OVA cells were treated with 10 μM Lactacystin (Sigma) overnight. […] After 24 hours cross-presentation of OVA peptide by DCs was analyzed by cytofluorimetry on CD11c^+ cells using an antibody that recognizes the OVA SIINFEKL peptide in association with MHC I (anti K^bOVA, 25-D1.16).
# [2] = tested on: GJs dependent intercellular communication, Mel-04 to human MoDC; experiment: FACS dye transfer assay, human cells: Mel-04 to MoDC; format: cell-based; conditions: co-culture in presence of heptanol (3.5 mM)
# From the text: FIG. 18. Salmonella infection upregulates GJs dependent intercellular communication in a melanoma-MoDC coculture model system. Human monocyte-derived DCs (MoDCs) were labeled with DDAO and then extensively washed.
# [3] = tested on: GJs-dependent intercellular communication, SK-Mel-24 to Mo-DC; format: cell-based, human
# [4] = tested on: GJs dependent intercellular communication between SK-Mel-24 cells; experiment: Dye transfer between SK-Mel-24 melanoma cells; format: cell-based, human; conditions: in the presence of heptanol
# Method: FIG. 20. Salmonella infection up-regulates GJs dependent intercellular communication in SK-Mel-24 melanoma cell line. In this experiment the dye transfer was performed from melanoma to melanoma cells (SK-Mel-24). The increase in dye transfer from Salmonella infected to non-infected SK-Mel-24 cells is clear as compared to that from non-infected to non-infected cells. The right panel represents the same experiment performed in the presence of Heptanol, an inhibitor of GJ dependent intercellular communication. Data are expressed as percentage of SK-Mel-24 calcein positive cells.
# [5] = tested on: SK-Mel24 and other target cell lines; experiment: CTL generation and cytotoxicity (DELFIA cytotoxicity kit); format: cell-based, human; conditions: Mo-DC/SL-infected SK-Mel24 coculture in presence of Heptanol (3,5 mM)
# Method: FIG. 24. SL-infected SK-Mel-24 loaded MoDC generate CTLs able to recognize epitopes shared among melanoma cells. CTL generated as described in materials and methods were tested for their antigen-specific cytotoxicity using DELFIA cytotoxicity kit. Target cells were: SK-Mel24, melanoma cell line, HLA negative cell line, HT29 (colon carcinoma).
# Mo-DCs obtained from the same donor were loaded with SL-infected SK-Mel24 (SL-SK), and cultured, with purified CD8^+ T cells. Proliferating cells were expanded for 7-10 days in complete medium supplemented with 20 U/ml of rhIL-2. Cytotoxic properties of generated CTLs were tested against selected targets.
# Purified CD8 T cells by magnetic cell sorting were cultured with MoDCs previously cocultured with infected or non-infected Sk-Mel24 in the presence or absence of 3,5 mM heptanol. After 24-48h cultures were supplemented with 20 U/ml of rhIL-2 and after 7-10 days CTLs were either subjected to a second round of stimulation or assayed for their cytotoxic activity. Melanoma specific cytotoxicity was measured by using DELFIA cytotoxicity Kit (Perkin Elmer) and lysosomal-associated membrane protein-1 (CD107a) mobilization was performed by using BD FastImmune CD107a reagent (BD Bioscience), according to manufacturer's instructions.
# [6] = tested on: gap junctions between B16 cells and DCs; experiment: FACS dye transfer assay, murine cells (calcein-AM from B16 to DDAO-labeled DCs); conditions: co-culture in presence of heptanol (3.5 mM)
# Method: B16 cells were infected or not with Salmonella, pulsed with the GJ-diffusible dye Calcein-AM and incubated with DDAO-labeled DCs, in the presence or absence of heptanol. One h later the % of cells double positive for DDAO and Calcein-AM, representing the DCs that received the dye from tumor cells, was evaluated by FACS (Black bars).
# FACS assay murine cells. DCs were labeled with 10 μM of the dye 7-hydroxy-9H(I,3-dichloro-9,9-dimethylacridin-2-one) (DDAO, Molecular Probes) for 15 minutes at R.T. in the dark and then extensively washed with PBS. B16 cells were infected or not with Salmonella and after 24 hours were labeled with 0.5 μM calcein-acetoxymethylester (calcein-AM; Molecular Probes) in serum-free medium for 30 minutes at 37° C. and then co-cultured with DCs at a ratio of 2:1. Calcein transfer between tumor cells and DCs was evaluated by cytofluorimetry. The co-culture of B16/DCs was carried out in the presence or absence of (3.5 mM) Heptanol (Sigma).
# [7] = B16 cells incubated with purified bacterial components, Western blot 24 h
molecule,measurement,setting,value
lipoteichoic acid [LTA],Cx43 expression,[1]; [7],same upregulation of Cx43
CC(=O)N[C@@H](CSC(=O)[C@]1([C@@H](O)C(C)C)NC(=O)[C@H](C)[C@@H]1O)C(=O)O [lactacystin],DC surface exposure of the K^b-OVA complex,B16-OVA cells / DCs; B16-OVA pretreated with 10 μM Lactacystin overnight,prevented the DC surface exposure of the K^b-OVA complex
lypopolysaccharide [LPS],Cx43 expression,[1]; [7],same upregulation of Cx43
flagellin,Cx43 expression,[1]; [7],same upregulation of Cx43
CCCCCCCO [heptanol],presentation of OVA peptide (K^bOVA) by DCs,"B16-OVA cells / DCs; infected B16-OVA + mature DCs 24 h, Heptanol (3.5 mM)",completely abolished the presentation of the peptide
same,calcein dye transfer from Mel-04 to MoDC,[2],capable of inhibiting the transfer
same,calcein transfer from SK-Mel-24 to Mo-DC,[3],most of the calcein transfer was inhibited
same,dye transfer from infected to non infected SK-Mel-24 cells,[4],inhibited
same,cytotoxicity of generated CTLs against the specific target,[5],unable to lyse the specific target
same,transfer of calcein from B16 cells to DCs,[6],completely abolished the transfer of calcein
"IFN-g: inflammatory cytokine gamma-IFN (protein, UniProt P01579 24-161, looked up) Interferon gamma: QDPYVKEAENLKKYFNAGHSDVADNGTLFLGILKNWKEESDRKIMQSQIVSFYFKLFKNFKDDQSIQKSVETIKEDMNVKFFNSNKKKRDDFEKLTNYSVTDLNVQRKAIHELIQVMAELSPAAKTGKRKRSQMLFRG",Cx43 expression,"[1]; B16 cells, IFN-g alone (100 U/ml)",upregulated Cx43
same,"Cx43 expression, combination effect","[1]; B16 cells, IFN-g together with Salmonella or bacterial components",acted in synergy with the bacterial components
